Test results as given in US8114382B2, “Myelin detection using benzofuran derivatives” (General Electric Company, priority 2006, dated 2012).

Columns and labels:
[1] = test system: myelin; assay: Staining of cryostatic sections of nervous tissue; type: binding, rat; conditions: for labeling of brain or nerve tissue versus background autofluorescence: brain and nerve sections
Protocol: 10 μm-thick sections (fresh frozen or formalin-fixed) of rat brain and cross-sections of sciatic, optic, and penile nerves were mounted on microscope slides, washed 3×5 min in phosphate buffered saline (PBS), then drained for 2 min. 1 mM stock solution of Formula I was prepared in 50% ethanol and 50% deionized water. The solution was vortexed and centrifuged at 10,000×g, and the supernatant, containing fully dissolved Formula I was transferred into a fresh tube. The solution was diluted to 25 uM in 50% ethanol. 200 uL of the 25 uM Formula I was pipetted onto the microscope slides. Control sections were treated with 50% ethanol. Parafilm was placed over sections during 10 min incubation at room temperature. Unbound compound was rinsed by serial immersion in 3×1 min washes in 50% ethanol, followed by a 1 min wash in de-ionized, distilled water. For cell body counterstaining, sections were immersed in 100 uL of 500 nM propidium iodide (PI) in PBS and carefully covered with parafilm. The sections were incubated for 5 min at room temperature. The samples were repeatedly rinsed and washed with PBS (3×10 min), followed by de-ionized, distilled water. The sections were covered with 20 uL of AntiFade Gold (Molecular Probes Inc, Carlsbad Calif.) and examined microscopically. Images were collected on a Leica DMRA2 fluorescent microscope equipped with filter cubes for near ultraviolet and visible fluorophores. Fluorescence was visualized using a Leica “A” filter cube while PI was imaged with a Leica “TX2” cube.
Staining of sciatic nerve sections by Formula I was also compared to a commercially available myelin stain (FluoroMyelin, Invitrogen). The tissue sections were […] by incubating in PBS for 5 minutes, followed by permeabilized with PBS containing 0.2% Triton X-100 for 20 minutes. The staining solution was prepared by 300-fold dilution of a stock solution of DAPI and a stock solution of Fluoromyelin green fluorescent myelin. Each section was flooded with 100 uL of the staining solution, covered with a small piece of parafilm and allowed to incubate for 20 min. The parafilm was removed and all sections were washed 3×5 min in PBS and rinsed with de-ionized, distilled water. After drying, the tissue sections were covered with 20 uL of AntiFade Gold (Molecular Probes Inc) and examined microscopically.

[2] = Fluorescence excitation and emission peaks (Spetramax M5); type: physicochemical; conditions: 10 μM in aqueous solution
Protocol: Fluorescence excitation and emission peaks for Formula I, and benzofuran compounds A and B, (see Table 1) were measured using a Spetramax M5 (Molecular Devices). For Formula I, the excitation max was 380 nm, and the emission max was 470 nm. For compound A, the excitation max was 435 nm and the emission max was 550 nm. For compound B, the excitation max was 435 nm and the emission max was 535 nm. The final concentration of each analog in an aqueous solution was 10 μM. Log P, which is the logarithm of octanol-water partition coefficient, was determined for each analog using commercially available software (Table 1).

[3] = test system: myelin of freshly explanted sciatic nerve; assay: Staining of explanted nerves; type: binding, rat; conditions: 20 min incubation, trans-illuminator ≧350 nm
Protocol: Freshly explanted sciatic nerve was incubated in Formula I then imaged under an ultraviolet transilluminator to visualize myelin. Rats were euthanized and within 30 min, 2 cm-long segments of their sciatic nerve tissue were collected, rinsed with PBS, then washed 3×5 min in 50% ethanol. The nerves were incubated at RT in the dark for 20 min in a solution of Formula I as prepared in Example 1. Control nerves were incubated in 50% ethanol. Nerves were rinsed 3×3 min in 50% ethanol, followed by de-ionized distilled water, and mounted on glass slides. Samples were placed on a trans-illuminator (long wavelength, ≧350 nm) and photographed.

[4] = Kinetics and biodistribution of [3H] labeled Formula I (standard uptake values); type: in vivo; conditions: mice
Protocol: 100 μl of [^3H] labeled Formula I, diluted in saline to 740 kBq/ml, was injected into the tail vein of female mice weighing […]. Mice were killed by CO2 at 2, 5, 15, 30, or 60 min post-injection and organs immediately dissected out. Organs were weighed, transferred to scintillation tubes containing 2 ml Biolute-S (Zinsser Analytic GmbH, Germany), and tubes were shaken overnight at room temperature. Subsequently, 200 μL of glacial acetic acid was added and after 1 h, 10 mL of scintillation fluid was added (Ready Organics, Beckman Coulter). The tubes were shaken vigorously, allowed to rest for 1 h, and radioactivity was measured in scintillation counter (LS 6000LL, Beckman Instruments). Blood, also sampled at each time point, was collected in heparinized tubes. 10 μL of each sample was added to 2 ml Biolute-S. A similar procedure was used for the other organs studied.
Biodistribution of Formula I at different time points following administration was expressed as standard uptake values (SUVs), according to the following formula wherein RA is a measure of radioactivity: […]

| Emission max [2] [nm] | Excitation max [2] [nm] | SUV of cortex and cerebellum ([4]; tail vein injection, 2 min post-injection) | time for SUV of multiple tissues to decline to baseline levels ([4]; tail vein injection, tissues such as blood and muscle) [min] | Compound | labeling of brain or nerve tissue versus background autofluorescence [1] | fluorescence of explanted sciatic nerve [3] | blood-brain barrier penetration ([4]; peripheral administration, uptake in cortex and cerebellum) | SUV / radioactive signal of sciatic nerve over time ([4]; tail vein injection, 2-60 min) | labeling of rat brain tissue section ([1]; 25 uM in 50% ethanol, 10 min, cerebellum, PI counterstain, FIG. 1) | labeling of sectioned peripheral nerves ([1]; cross-sections of peripheral nerves) |
| --- | --- | --- | --- | --- | --- | --- | --- | --- | --- | --- |
| 550 | 435 |  |  | N#CC(C#N)=Cc1ccc(-c2oc3ccccc3c2CO)o1 [compound A] | did not label brain or nerve tissue above background autofluorescence |  |  |  |  |  |
| 470 | 380 | < 0.2 | ≤ 60 | O=Cc1ccc(-c2oc3ccccc3c2CO)o1 [Formula I, 2-(2-furanyl-5-formyl)-3-hydroxymethyl benzofuran] |  | distinctive fluorescence over background | does not readily penetrate the blood-brain barrier | remained elevated throughout the sampling period | specific labeling of myelin | distinctive rings of labeling indicative of cross sections of myelin ensheathing unlabeled axon shafts |
| 535 | 435 |  |  | CC(=O)OCc1c(-c2ccc(C=C(C#N)C#N)o2)oc2ccccc12 [compound B, 2-(2-diaminooxyethenyl-5-furanyl)-3-ethylacetyl benzofuran] | did not label brain or nerve tissue above background autofluorescence |  |  |  |  |  |
